Laboratory results reported in patent publication US20120251495A1, “PTERIN BASED THERAPIES FOR INFLAMMATORY CONDITIONS” (priority 2008, published 2012).

How the values were obtained:
[1] = tested on: hepatitis B core antigen (HBcAg); experiment: Liver HBcAg assay in HBV transgenic mice; assay type: in vivo; settings: 2.3 mg/(kg d)
Description: (§1) Experimental design. DCP was administered per os, once daily for 14 days to randomly assigned HBV transgenic mice at 23, 7.3, and 2.3 mg/(kg d). ADV was used as a positive control at 10 mg/(kg d) using the same treatment schedule and vehicle (0.4% CMC). On day 14, mice were euthanized to collect serum and liver samples to perform liver HBV DNA, liver core and serum HBe assays, serum cytokine/chemokine profiles, and IDO metabolite assays.
Liver HBcAg assay. Liver biopsies were processed for detection of hepatitis B core antigen (HBcAg) (Motley J D, Motter N E, Taro B, Lay M & Fairman J. Efficacy of cationic lipid-DNA complexes (CLDC) on hepatitis B virus in transgenic mice. Antiviral Res 2008; 79:71-79). Three different parameters were obtained from each tissue section. […] The first two parameters were obtained by counting cells surrounding central veins as follows: the total number of cells, the number of cells with stained nuclei, and the number of cells with stained cytoplasms. The identities of the samples were blinded to person counting. The stained nuclei counts or the stained cytoplasm counts were divided by the total cells. Three central vein areas were counted for each slide sample. For the third parameter, a field not in a central vein area was counted for the total number of stained nuclei. One-quarter of the field was counted. Three such fields were counted per liver section. The identity of the samples was blinded to the person reading the slides.

[2] = tested on: IDO; experiment: Serum tryptophan and kynurenine in HBV transgenic mice; assay type: in vivo
Description: as §1
Tryptophan and kynurenine measurements. Tryptophan (Trp) and kynurenine (Kyn) measurements were carried out as previously described (Widner B, Werner E R, Schennach H, Wachter H & Fuchs D. Simultaneous measurement of serum tryptophan and kynurenine by HPLC. Clin Chem 1997; 43:2424-2426). Kyn/Trp ratios were calculated for each mouse as an estimate of IDO activity.

[3] = tested on: spontaneous mammary gland tumors; settings: C3H/HeN-MTV+ mice; Moheno, 2004; cited from earlier work
[4] = tested on: MDA-MB-231 human breast tumor xenographs; experiment: Antitumor efficacy in nude mice with MDA-MB-231 xenographs, 1st experiment; assay type: in vivo, athymic nude (nu/nu) mice; settings: for Day 60 Rel Tum Vol: mean ± SEM
Description: The aims of the 1st experiment were to determine a dose-response curve for the (1:4 mol:mol) calcium pterin suspension, to compare the antitumor activity of this suspension to pterin alone (pterin control), and to test the effect of CaPterin mega-dosing at 100 mg/kg/day. Antitumor efficacy was evaluated in nude mice with MDA-MB-231 human tumor xenographs by Perry Scientific (San Diego, Calif.). In the 1st experiment, twenty-three athymic nude (nu/nu) female mice, ages 3-4 weeks, were purchased from Harlan Sprague Dawley, Inc. (Indianapolis, Ind.). 5×10^6 MDA-MB-231 cancer cells were injected subcutaneously into the right flank of each mouse. When tumors reached 3-5 mm in size, twenty mice were divided into four treatment/control groups of five mice each. The four treatment groups were: (1:4 mol:mol) calcium pterin (7 mg/kg/day); pterin (21 mg/kg/day); (1:4 mol:mol) calcium pterin (21 mg/kg/day); and sterile water control. Two mice with outlying tumor sizes or non-tumor takes were excluded shortly after treatment began: one from the pterin group and one from the control group. […] Only one outlier persisted >4 days, for 14 days. Also excluded from the metabolic analysis in the 1st experiment was one mouse from each of the four experimental groups mega-dosed by oral gavage with 100 mg/kg/day CaPterin for tip to 31 days to test for toxicity. All the other mice in the 1st experiment persisted ≧60 days without complications.
The control mice in the 1st experiment were treated with sterile water while the control mice in the 2nd experiment were untreated to evaluate the effect of mouse handling and gavaging upon tumor growth. Daily dosing was for 7 days per week. Animals were restrained but not anesthetized for oral dosing. Tumors were measured twice weekly with calipers and body weights taken twice weekly on the day of tumor measurements. Blood was collected from all animals via cardiac puncture at termination (after 70 to 98 days of treatment) and processed to EDTA plasma for analysis. Tumor size measurements for the control group in the 2nd experiment on days 4 and 7 were missed due to a technical oversight.
The MDA-MB-231 human breast tumor cell lines were supplied by SRI International (Menlo Park, Calif.) and propagated using standard in vitro cell expansion methods. Briefly, cells were grown in L-15 media from Gibco (Cat. No. 11415-064) supplemented with 2 mM L-Glutamine and 10% Fetal Bovine Serum (FBS). The cells were cultured in an incubator with 5% CO2, 37.5° C., and 80% humidity. Cells were harvested with 0.25% (w/v) Trypsin-0.03% (w/v) EDTA solution. Cells were prepared for injection by standard methods to appropriate concentrations. Animals were temporarily restrained but not anesthetized for the inoculation of the tumor cells. Animals were subcutaneously injected with the tumor cells in a 100-200 μl volume.
Each animal was individually tracked for tumor growth by external caliper measurements of protruding tumor. Primary tumor sizes were measured using calipers and an approximate tumor volume calculated using the formula 1/2 (a×b^2), where b was the smaller of two perpendicular diameters.
For each group, the mean and standard error of the mean (SEM) of the ratio V/Vo, Relative Tumor Volume (RTV), were plotted as a function of treatment time after inoculation. V0 was the tumor volume at Day 0, when treatment began.

[5] = HBV mice generally, 2.3-23.0 mg/(kg day)

Compound | HBcAg Stained nuclei/total, Female levels (mean ± SEM) ([1]; female) | HBcAg Stained nuclei/total, Male levels (mean ± SEM) ([1]; male) | serum Kyn [2, 5] | serum Kyn/Trp [2, 5] | serum tryptophan (Trp) versus controls ([2]; male HBV mice, 23.0 mg/(kg day)) | activity against spontaneous mammary gland tumors [3] | antitumor activity (tumor growth vs control) ([4]; 7 mg/kg/day) | Day 60 Rel Tum Vol ([4]; 7 mg/kg/day oral) | antitumor activity (tumor growth vs control) ([4]; 21 mg/kg/day) | Day 60 Rel Tum Vol ([4]; 21 mg/kg/day oral) | T/C ratio (mean treatment tumor volume to mean control tumor volume) ([4]; 21 mg/kg/day, after 60 days) | Spearman rank order correlation rs, Day 60 Relative Tumor Volume versus dose ([4]; n=14, p=0.005)
Nc1nc([O-])c2nccnc2n1.Nc1nc([O-])c2nccnc2n1.[Ca+2] [DCP, dipterinyl calcium pentahydrate] | 0.36 ± 0.046 | 0.51 ± 0.041 | did not affect | did not affect | significantly increased | – | – | – | – | – | – | –
(1:4 mol:mol) calcium pterin [CaPterin] | – | – | – | – | – | highly significant activity | non-significant | 24.0 ± 9.0 | significantly inhibits | 7.9 ± 1.3 | 41% | 0.70
